The source of these data is PubChem BioAssay AID180 (DTP/NCI, 2004).

The subject of this assay is BDF1 mice, Adenocarcinoma 755 s.c., tumor weight T/C. As to the kind of experiment: NCI In Vivo Anticancer Drug Screen. Data for tumor model Adenocarcinoma 755 (subcutaneous) in B6D2F1 (BDF1) mice. The conditions noted are these: endpoint: mean tumor weight, higher = larger tumour. In a few lines: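 Compound activity was tested in mice carrying transplanted tumors. Survival or tumor size was measured, and each value is the treated-group measurement divided by that of the vehicle-treated control group (T/C).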

Setting [1] is: dose: 400.0 mg/kg/injection, schedule: Q01DX011 (ip), vehicle: carboxymethylcellulose (CMC).
The mark [2] stands for this setting: dose: 30.0 mg/kg/injection, schedule: Q01DX011 (ip), vehicle: carboxymethylcellulose (CMC).
Setting [3] is: dose: 60.0 mg/kg/injection, schedule: Q01DX011 (ip), vehicle: carboxymethylcellulose (CMC).

Several values for one entry are separate records, joined by “and”; a condition that tells them apart may be missing. Equal entries are not always repeated.

As usually defined, the T/C is the result in the treated group divided by that in the control group, in per cent.

As to `CCOC(=O)NP(=O)(N1CC1)N1CC1`, the T/C by setting is: (dose: 2.37 mg/kg/injection, schedule: Q01DX011 (ip), vehicle: carboxymethylcellulose (CMC)) 118 % of control; (dose: 2.5 mg/kg/injection, schedule: Q01DX011 (ip), vehicle: carboxymethylcellulose (CMC)) 67 % of control; (dose: 4.75 mg/kg/injection, schedule: Q01DX011 (ip), vehicle: carboxymethylcellulose (CMC)) 104 % of control; (dose: 5.0 mg/kg/injection, schedule: Q01DX011 (ip), vehicle: carboxymethylcellulose (CMC)) 73 % of control; (dose: 7.6 mg/kg/injection, schedule: Q01DX011 (ip), vehicle: carboxymethylcellulose (CMC)) 101 % of control; (dose: 8.0 mg/kg/injection, schedule: Q01DX011 (ip), vehicle: carboxymethylcellulose (CMC)) 52 % of control. Besides, the T/C is 61 % of control and 75 % of control (dose: 9.5 mg/kg/injection, schedule: Q01DX011 (ip), vehicle: carboxymethylcellulose (CMC)); 58 % of control and 77 % of control (dose: 10.0 mg/kg/injection, schedule: Q01DX011 (ip), vehicle: carboxymethylcellulose (CMC)); 54 % of control (dose: 12.66 mg/kg/injection, schedule: Q01DX011 (ip), vehicle: carboxymethylcellulose (CMC)); 18 % of control (dose: 13.3 mg/kg/injection, schedule: Q01DX011 (ip), vehicle: carboxymethylcellulose (CMC)); 17 % of control and 20 % of control (dose: 19.0 mg/kg/injection, schedule: Q01DX011 (ip), vehicle: carboxymethylcellulose (CMC)); 14 % of control (dose: 20.0 mg/kg/injection, schedule: Q01DX011 (ip), vehicle: carboxymethylcellulose (CMC)).
For `CCC(=O)O[C@H]1CC[C@H]2[C@@H]3CCC4=CC(=O)CC[C@]4(C)[C@H]3CC[C@]12C`, the T/C (dose: 125.0 mg/kg/injection, schedule: Q01DX011 (sc), vehicle: steriod suspending solution) is 101 % of control and 104 % of control; the T/C (dose: 400.0 mg/kg/injection, schedule: Q01DX011 (sc), vehicle: steriod suspending solution) was 69 % of control; the T/C (dose: 666.66 mg/kg/injection, schedule: Q01DX011 (sc), vehicle: steriod suspending solution) is 61 % of control.
As for `COc1ccc(C(=O)OCC2OC(n3cnc4c(=S)nc[nH]c43)C(OC(=O)c3ccc(OC)cc3)C2OC(=O)c2ccc(OC)cc2)cc1` (stereo unspecified), the T/C is 28 % of control (dose: 200.0 mg/kg/injection, schedule: Q01DX011 (ip), vehicle: carboxymethylcellulose (CMC)); 2 % of control under setting [1]; 7 % of control (dose: 800.0 mg/kg/injection, schedule: Q01DX011 (ip), vehicle: carboxymethylcellulose (CMC)).
Regarding `Cn1c(=O)c2[nH]cnc2n(C)c1=O`, the T/C was 85 % of control (dose: 14.5 mg/kg/injection, schedule: Q01DX011 (ip), vehicle: carboxymethylcellulose (CMC)); 68 % of control (dose: 18.25 mg/kg/injection, schedule: Q01DX011 (ip), vehicle: carboxymethylcellulose (CMC)); 80 % of control (dose: 19.87 mg/kg/injection, schedule: Q01DX011 (ip), vehicle: carboxymethylcellulose (CMC)); 44 % of control (dose: 29.0 mg/kg/injection, schedule: Q01DX011 (ip), vehicle: carboxymethylcellulose (CMC)); 92 % of control (dose: 36.5 mg/kg/injection, schedule: Q01DX011 (ip), vehicle: carboxymethylcellulose (CMC)); 52 % of control (dose: 39.74 mg/kg/injection, schedule: Q01DX011 (ip), vehicle: carboxymethylcellulose (CMC)). The T/C is 86 % of control (dose: 63.0 mg/kg/injection, schedule: Q01DX011 (ip), vehicle: carboxymethylcellulose (CMC)); 53 % of control and 72 % of control (dose: 77.33 mg/kg/injection, schedule: Q01DX011 (ip), vehicle: carboxymethylcellulose (CMC)); 53 % of control (dose: 79.48 mg/kg/injection, schedule: Q01DX011 (ip), vehicle: carboxymethylcellulose (CMC)); 75 % of control (dose: 116.0 mg/kg/injection, schedule: Q01DX011 (ip), vehicle: carboxymethylcellulose (CMC)); 60 % of control (dose: 158.97 mg/kg/injection, schedule: Q01DX011 (ip), vehicle: carboxymethylcellulose (CMC)).
`COC1=NC2=NCCN2C(OC)=N1`: the T/C is, setting by setting: (dose: 25.0 mg/kg/injection, schedule: Q01DX011 (ip), vehicle: saline) 94 % of control; (dose: 75.0 mg/kg/injection, schedule: Q01DX011 (ip), vehicle: saline) 69 % of control; (dose: 225.0 mg/kg/injection, schedule: Q01DX011 (ip), vehicle: saline) 54 % of control.
For the compound `CC(=O)OCC1OC(n2cnc3c(=O)[nH]c(N)nc32)C(OC(C)=O)C1OC(C)=O` (stereo unspecified), the T/C under setting [2] was 59 % of control; the T/C under setting [3] is 49 % of control; the T/C (dose: 120.0 mg/kg/injection, schedule: Q01DX011 (ip), vehicle: carboxymethylcellulose (CMC)) was 57 % of control; the T/C (dose: 240.0 mg/kg/injection, schedule: Q01DX011 (ip), vehicle: carboxymethylcellulose (CMC)) was 51 % of control; the T/C under setting [1] is 87 % of control; the T/C (dose: 600.0 mg/kg/injection, schedule: Q01DX011 (ip), vehicle: carboxymethylcellulose (CMC)) is 83 % of control.
Turning to `O=C(CCBr)N1CCN(C(=O)CCBr)CC1`, the T/C reads like this: (dose: 5.6 mg/kg/injection, schedule: Q01DX011 (ip), vehicle: methylcellulose (MC)) 103 % of control; (dose: 11.25 mg/kg/injection, schedule: Q01DX011 (ip), vehicle: methylcellulose (MC)) 89 % of control and 94 % of control; (dose: 15.0 mg/kg/injection, schedule: Q01DX011 (ip), vehicle: carboxymethylcellulose (CMC)) 56 % of control; (dose: 22.5 mg/kg/injection, schedule: Q01DX011 (ip), vehicle: methylcellulose (MC)) 40 % of control and 65 % of control; under setting [2], 37 % of control; (dose: 45.0 mg/kg/injection, schedule: Q01DX011 (ip), vehicle: methylcellulose (MC)) 51 % of control. The T/C reads like this: under setting [3], 24 % of control; (dose: 90.0 mg/kg/injection, schedule: Q01DX011 (ip), vehicle: methylcellulose (MC)) 12 % of control.
